# Test results taken from patent publication US8829185B2 (Bayer HealthCare LLC, priority 2005, dated 2014).
# Molecular target: T1, FGFR1-GST (Homo sapiens, UniProt P11362)
# T1 construct: GST; made in house
# Assay: FGFR-1 TR-FRET biochemical assay
# Conditions: bounds given in nM
# Experimental: FGFR-1 TR-FRET Biochemical Assay
# The FGFR-1 Assay was performed on half well 96-well opaque plates (Costar 3915) in a LANCE format. LANCE is a homogenous time resolved fluormetry based application available through Perkin Elmer. For this assay, 50 uL reactions were set up using: 0.6 uM ATP (Sigma), 25 nM poly GT-biotin (CIS BIO International), 2 nM Eu-labelled phospho-Tyr Ab (PY20 PerkinElmer), 10 nM Streptavidin-APC (Perkin Elmer), 5 nM FGFR1-GST (generated by DRT, Bayer Healthcare), 1% DMSO, 50 mM HEPES pH 7.5, 10 mM MgCl2, 0.1 mM EDTA, 0.015% Brij, 0.1 mg/ml BSA, 0.1% B-mercaptoethanol. All reactions were initiated with the addition of enzyme and were left to incubate for one hour at room temperature. Time-resolved fluorescence was then read on a Perkin Elmer VictorV Multilabel counter. The reading protocol uses an excitation wavelength at 340 nm and emission reads at both 615 and 665 nm. Signal was calculated as a ratio: (Fluorescence at 665 nm/Fluorescence at […])*10000 for each well. The background control used for this assay is the signal produced with all assay components excluding ATP. For IC50 generation, compounds were added prior to the enzyme initiation. A 50-fold stock plate was made with compounds serially diluted 1:5 in a 50% DMSO/50% dH2O solution. A 1 μL addition of the stock to the assay wells gave final compound concentrations ranging from 10 μM −0.128 nM in 1% DMSO. The data were expressed as percent inhibition: % inhibition=100−((Signal with inhibitor-background)/(Signal without inhibitor−background))*100.
# T1 sequence (P11362 22-822): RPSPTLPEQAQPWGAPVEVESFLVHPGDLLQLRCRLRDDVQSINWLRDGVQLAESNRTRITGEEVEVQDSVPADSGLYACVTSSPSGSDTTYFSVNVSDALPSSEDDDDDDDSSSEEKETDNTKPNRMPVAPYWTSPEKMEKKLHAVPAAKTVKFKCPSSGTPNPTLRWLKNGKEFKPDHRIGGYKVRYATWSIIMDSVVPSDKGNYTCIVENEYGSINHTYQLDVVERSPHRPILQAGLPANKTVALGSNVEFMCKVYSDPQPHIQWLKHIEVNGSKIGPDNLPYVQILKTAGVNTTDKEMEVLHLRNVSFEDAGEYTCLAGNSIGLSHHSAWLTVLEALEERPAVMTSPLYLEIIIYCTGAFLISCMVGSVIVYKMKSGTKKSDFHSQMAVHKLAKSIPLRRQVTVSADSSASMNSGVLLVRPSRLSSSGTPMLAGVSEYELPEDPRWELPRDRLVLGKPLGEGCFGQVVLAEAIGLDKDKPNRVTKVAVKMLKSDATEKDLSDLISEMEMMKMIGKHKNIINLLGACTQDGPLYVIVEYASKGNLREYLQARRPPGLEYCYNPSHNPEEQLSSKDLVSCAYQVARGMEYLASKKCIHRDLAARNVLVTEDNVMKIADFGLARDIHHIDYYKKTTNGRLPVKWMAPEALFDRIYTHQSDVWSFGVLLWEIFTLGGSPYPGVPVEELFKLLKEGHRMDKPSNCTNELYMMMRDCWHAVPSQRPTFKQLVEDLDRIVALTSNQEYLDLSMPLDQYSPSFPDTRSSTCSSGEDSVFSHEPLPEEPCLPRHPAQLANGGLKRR
row,IC50 [nM],Compound
1,10 to 100,"CCOC(=O)c1c(-c2ccc(NC(=O)Nc3cc(C(F)(F)F)ccn3)cc2)c2c(N)ncnn2c1-c1cccc(F)c1 [Example 1, Ethyl 4-amino-7-(3-fluorophenyl)-5-{4-[({[4-(trifluoromethyl)pyridin-2-yl]amino}carbonyl)amino]phenyl}-pyrrolo[2,1-f][1,2,4]triazine-6-carboxylate]"
2,< 10,"N#CCc1c(-c2ccc(NC(=O)Nc3cc(C(F)(F)F)ccn3)cc2)c2c(N)ncnn2c1CN1CCOCC1 [Example 63, N-{4-[4-amino-6-(cyanomethyl)-7-(morpholin-4-ylmethyl)-pyrrolo[2,1-f][1,2,4]triazin-5-yl]phenyl}-N′-[4-(trifluoromethyl)-pyridin-2-yl]urea]"
3,< 10,"Nc1ncnn2c(CN3CCOCC3)c(Cl)c(-c3ccc(NC(=O)Nc4cc(C(F)(F)F)ccc4F)cc3)c12 [Example 154, N-{4-[4-amino-6-chloro-7-(morpholin-4-ylmethyl)pyrrolo[2,1-f][1,2,4]triazin-5-yl]phenyl}-N′-[2-fluoro-5-(trifluoromethyl)phenyl]urea]"
4,< 10,"CC(=O)c1c(-c2ccc(NC(=O)Nc3cc(C(F)(F)F)ccc3F)cc2)c2c(N)ncnn2c1CN1CCOCC1 [Example 105, N-4-[6-acetyl-4-amino-7-(morpholin-4-ylmethyl)pyrrolo[2,1-f][1,2,4]triazin-5-yl]phenyl-N′-[2-fluoro-5-(trifluoromethyl)phenyl]urea]"
5,< 10,"COCc1c(-c2ccc(NC(=O)Nc3cc(C(C)(C)C)ccn3)c(F)c2)c2c(N)ncnn2c1CN1CCOCC1 [Example 135, N-{4-[4-amino-6-(methoxymethyl)-7-(morpholin-4-ylmethyl)-pyrrolo[2,1-f][1,2,4]triazin-5-yl]-2-fluorophenyl}-N′-(4-tert-butylpyridin-2-yl)urea]"
6,< 10,"Nc1ncnn2c(CN3CCOCC3)c(C(F)F)c(-c3ccc(NC(=O)Nc4cc(C(F)(F)F)ccn4)c(F)c3)c12 [Example 116, N-{4-[4-amino-6-(difluoromethyl)-7-(morpholin-4-ylmethyl)-pyrrolo[2,1-f][1,2,4]triazin-5-yl]-2-fluorophenyl}-N′-[4-(trifluoromethyl)pyridin-2-yl]urea]"
7,< 10,"Cc1c(-c2ccc(NC(=O)Nc3cc(C(F)(F)F)ccc3F)cc2)c2c(N)ncnn2c1CN1CCCOCC1 [Example 117, N-{4-[4-amino-6-methyl-7-(1,4-oxazepan-4-ylmethyl)pyrrolo[2,1-f][1,2,4]triazin-5-yl]phenyl}-N′-[2-fluoro-5-(trifluoromethyl)phenyl]urea]"
8,< 10,"Nc1ncnn2c(CN3CCOCC3)c(-c3cnco3)c(-c3ccc(NC(=O)Nc4cc(C(F)(F)F)ccn4)cc3)c12 [Example 27, N-4-[4-amino-7-(morpholin-4-ylmethyl)-6-(1,3-oxazol-5-yl)pyrrolo[2,1-f][1,2,4]triazin-5-yl]phenyl-N′-[4-(trifluoromethyl)pyridin-2-yl]urea]"
9,10 to 100,"COCc1c(-c2ccc(NC(=O)Nc3cc(C(F)(F)F)ccc3F)cc2)c2c(N)ncnn2c1CNC1CC1 [Example 16, N-{4-[4-amino-7-[(cyclopropylamino)methyl]-6-(methoxymethyl)pyrrolo[2,1-f][1,2,4]triazin-5-yl]phenyl}-N′-[2-fluoro-5-(trifluoromethyl)phenyl]urea]"
10,> 100,COCc1c(-c2ccc(NC(=O)Nc3cccc(C(F)(F)F)n3)cc2)c2c(N)ncnn2c1CN1CCOCC1 [Example 50]
11,< 10,"COCc1c(-c2ccc(NC(=O)Nc3cccc(C(C)(C)C)c3)c(F)c2)c2c(N)ncnn2c1CN1CCOCC1 [Example 138, N-{4-[4-amino-6-(methoxymethyl)-7-(morpholin-4-ylmethyl)-pyrrolo[2,1-f][1,2,4]triazin-5-yl]-2-fluorophenyl}-N′-(3-tert-butylphenyl)urea]"
12,10 to 100,"Nc1ncnn2c(CN3CCOCC3)c(Cl)c(-c3ccc(NC(=O)Nc4cccc(C(F)(F)F)c4)c(Cl)c3)c12 [Example 160, N-{4-[4-amino-6-chloro-7-(morpholin-4-ylmethyl)pyrrolo[2,1-f][1,2,4]triazin-5-yl]-2-chlorophenyl}-N′-[3-(trifluoromethyl)phenyl]urea]"
13,10 to 100,"COCCNCc1c(COC)c(-c2ccc(NC(=O)Nc3cc(C(F)(F)F)ccc3F)cc2)c2c(N)ncnn12 [Example 15, N-{4-[4-amino-7-{[(2-methoxyethyl)amino]methyl}-6-(methoxymethyl)pyrrolo[2,1-f][1,2,4]triazin-5-yl]phenyl}-N′-[2-fluoro-5-(trifluoromethyl)phenyl]urea]"
14,< 10,"N#CCc1c(-c2ccc(NC(=O)Nc3cc(C(F)(F)F)ccn3)cc2)c2c(N)ncnn2c1CN1CCNC(=O)C1 [Example 66, N-(4-{4-amino-6-(cyanomethyl)-7-[(3-oxopiperazin-1-yl)methyl]-pyrrolo[2,1-f][1,2,4]triazin-5-yl}phenyl)-N′-[4-(trifluoromethyl)pyridin-2-yl]urea]"
15,< 10,"N#CCc1c(-c2ccc(NC(=O)Nc3cc(C(F)(F)F)ccc3F)cc2)c2c(N)ncnn2c1CN1CCOCC1 [Example 68, N-{4-[4-amino-6-(cyanomethyl)-7-(morpholin-4-ylmethyl)-pyrrolo[2,1-f][1,2,4]triazin-5-yl]phenyl}-N′-[2-fluoro-5-(trifluoromethyl)-phenyl]urea]"
16,> 100,"COCCN(C)Cc1c(-c2ccc(NC(=O)Nc3cc(C(F)(F)F)ccc3F)cc2)c2c(N)ncnn2c1CN1CCOCC1 [Example 110, N-4-[4-amino-6-[(2-methoxyethyl)(methyl)-amino]methyl-7-(morpholin-4-ylmethyl)pyrrolo[2,1-f][1,2,4]triazin-5-yl]phenyl-N′-[2-fluoro-5-(trifluoromethyl)phenyl]urea]"
17,10 to 100,"Nc1ncnn2c(CN3CCOCC3)c(Cl)c(-c3ccc(NC(=O)Nc4cc(C(F)(F)F)ccc4F)c(F)c3)c12 [Example 152, N-{4-[4-amino-6-chloro-7-(morpholin-4-ylmethyl)pyrrolo[2,1-f][1,2,4]triazin-5-yl]-2-fluorophenyl}-N′-[2-fluoro-5-(trifluoromethyl)-phenyl]urea]"
18,10 to 100,"CN1CCN(Cc2c(CC#N)c(-c3ccc(NC(=O)Nc4cc(C(F)(F)F)ccc4F)cc3)c3c(N)ncnn23)CC1 [Example 74, N-(4-{4-amino-6-(cyanomethyl)-7-[(4-methylpiperazin-1-yl)methyl]pyrrolo[2,1-f][1,2,4]triazin-5-yl}phenyl)-N′-[2-fluoro-5-(trifluoromethyl)phenyl]urea]"
19,10 to 100,"N#Cc1c(C(=O)NCC(F)(F)F)c(-c2ccc(NC(=O)Nc3cc(C(F)(F)F)ccc3F)cc2)c2c(N)ncnn12 [Example 5, 4-amino-7-cyano-5-4-[([2-fluoro-5-(trifluoromethyl)phenyl]aminocarbonyl)amino]phenyl-N-(2,2,2-trifluoroethyl)-pyrrolo[2,1-f][1,2,4]triazine-6-carboxamide]"
20,< 10,"Cc1ccc(F)c(NC(=O)Nc2ccc(-c3c(Cl)c(CN4CCOCC4)n4ncnc(N)c34)cc2F)c1 [Example 161, N-{4-[4-amino-6-chloro-7-(morpholin-4-ylmethyl)pyrrolo[2,1-f][1,2,4]triazin-5-yl]-2-fluorophenyl}-N′-(2-fluoro-5-methylphenyl)urea]"

# Same assay, conditions: upper bound in μM
row,IC50 [nM],Compound
1,< 1000,COCc1c(-c2ccc(NC(=O)Nc3cccc(C(F)(F)F)n3)cc2)c2c(N)ncnn2c1CN1CCOCC1 [Example 50]
2,< 1000,"COCCN(C)Cc1c(-c2ccc(NC(=O)Nc3cc(C(F)(F)F)ccc3F)cc2)c2c(N)ncnn2c1CN1CCOCC1 [Example 110, N-4-[4-amino-6-[(2-methoxyethyl)(methyl)-amino]methyl-7-(morpholin-4-ylmethyl)pyrrolo[2,1-f][1,2,4]triazin-5-yl]phenyl-N′-[2-fluoro-5-(trifluoromethyl)phenyl]urea]"
